Results from publication PMC8541546, “Identification of HLA-A2-Restricted Mutant Epitopes from Neoantigens of Esophageal Squamous Cell Carcinoma” (Vaccines, 2021).

Assays:
HLA-A*0201 molecule = target: T1, HLA-A*0201 molecule (Homo sapiens, UniProt P04439, D140Y/D185E/D98H/E176V/E277Q/G131W/G231S/I119V/I121R/I166T/I218V/L300P/L318F/N151K/N90K/P208A/P217A/Q86G/Q94H/R138H/R169H/T345S); test: T2A2 cell-binding assay; conditions: T2A2 cells; FI = (MFI of peptide - MFI of control without peptide)/MFI of control without peptide; anti-HLA-A2 BB7.2, flow cytometry; FI > 1 = high binding affinity
T1 construct: T2A2 cells (TAP-deficient HLA-A2 molecules overexpressing, cultured in IMDM medium); host or cells: T2A2 cells
Description: The binding affinity of neoepitope to the MHC molecule and the stable neoepitope/MHC complex are critical for inducing T cell immune response, so we first performed a T2A2 cell-binding assay and stabilization assay. The T2A2 cell-binding assay was measured as in our previous study. The binding affinity was computed as follows: fluorescence index (FI) = (mean fluorescence intensity (MFI) of peptide group-MFI of the dissolved buffer without peptide group)/MFI of the dissolved buffer without peptide group.

[1] = target: T2, peptide/HLA-A*0201 complex (Homo sapiens, UniProt P04439, D140Y/D185E/D98H/E176V/E277Q/G131W/G231S/I119V/I121R/I166T/I218V/L300P/L318F/N151K/N90K/P208A/P217A/Q86G/Q94H/R138H/R169H/T345S); test: peptide/MHC complex stabilization assay on T2A2 cells; type: binding; conditions: T2A2 cells pulsed with 50 μg/mL peptide and 3 μg/mL β2-M 18 h, BFA 1 h; MFI at 0, 2, 4, 6 h; time of half losing MFI of 0 h
T2 construct: T2A2 cells (TAP-deficient HLA-A2 molecules overexpressing, cultured in IMDM medium); β2-M from Merck; host or cells: T2A2 cells
Description: For the stabilization test, T2A2 cells were pulsed with 50 μg/mL mutant peptide and 3 μg/mL β2-Microglobulin (β2-M, Merck, Kenilworth, NJ, USA) in IMDM (serum-free) medium for 18 h. After three times washing, free peptides were removed and brefeldin A (BFA, 10 μg/mL, BD Bioscience, San Diego, CA, USA) was added. BFA was removed after 1 h impeding, and the cells were incubated for additional time. Finally, T2A2 was marked with anti-human HLA-A2 PE-Cyanine7 for 30 min, then analyzed by FACS Calibur (BD Bioscience, USA). MFI of 0 h was set as 100%, and the time of half losing MFI of 0 h defined the dissociation complex 50 (DC50). DC50 was computed as follows: (MFI of 0 h-MFI of (2, 4, or 6 h))/MFI of 0 h × 100%.

[2] = system: peptide-pulsed T2A2 cells; test: Cytotoxicity assay of peptide-induced T cells from donor PBMCs; type: cell-based, human; conditions: donors B–F; E/T 12.5:1, 25:1, 50:1; T2A2 loaded with 50 μg/mL peptide
Description: (§1) DCs involve and play an important role in initiating CD8^+ T cell response. Consequently, ten HLA-A2^+ healthy donors’ PBMCs were isolated, autologous DCs were generated, and CTLs were induced according to the procedure described previously. In brief, PBMCs were seeded at a density of 5 × 10^6 cells/well in a 6-well plate, and after 3 h, the non-adherent cells were removed and cryopreserved for future incubation with mature autologous DCs. Differentiation of the adherent cells into dendritic cells was induced by GM-CSF (100 ng/mL, #300-03, PeproTech, Rocky Hill, NJ, USA) and IL-4 (100 ng/mL; #200-04, PeproTech, USA), with replenishment every 2 days. On day 5, maturation of DCs was induced using 100 ng/mL LPS (#L4516, Sigma-Aldrich, St. Louis, MO, USA), and maturation was checked on day 8 by flow cytometry (BD FACSCelesta™) using markers for anti-human HLA-DR, anti-human CD80, and anti-human CD86. Then, mature DCs (1 × 10^5) were pulsed with each 10 μg /mL individual peptide or no peptides (control) for 2 h at 37 °C. Next, peptide-pulsed DCs were used to prime the previously cryopreserved autologous peripheral blood lymphocytes (PBLs) at a DC/PBL ratio of 1:10 using complete RPMI-1640 media supplemented with 100 IU/mL rhIL-2 (#200-02, PeproTech, USA) and 10 ng/mL rhIL-7 (#200-07, PeproTech, USA). Half of the feeding medium was replenished every 2 days. After 7 days, PBLs were restimulated with freshly pulsed autologous DCs every 7 days.
The cytotoxicity of peptide-specific T cells stimulated by mutant peptides was tested by using Cell Trace Far Red (Thermo Scientific, USA). Transfected cells were suspended in PBS (1 × 10^6 cells/mL) and labelled with Cell Trace Far Red as follows: Control target cells and test target cells were marked by 50 μM and 1 mM Cell Trace Far Red, respectively, at 37 °C for 20 min, protected from light. After incubation, target cells were washed with complete media at 37 °C for 5 min. […] Subsequently, test target cells were mixed with control target cells in a tube, washed once, and analyzed by flow cytometry. Specific lysis (%) = (numbers of control target cells—numbers of test target cells)/numbers of control target cells × 100% [28, 29], where, for tumor cells, the control target cells refer to KYSE140-WT cells marked with 50 μM Cell Trace Far Red, and the test target cell refers to KYSE140-WT or KYSE140-MUT cells marked with 1 mM Cell Trace Far Red, respectively (peptide-specific T cells generated from donors G–K’s PBMCs in vitro or generated from spleen lymphocytes of HLA-A2.1/K^b Tg mice in vivo). Additionally, for T2A2 target cells, T2A2 cells unpulsed and marked with 50 μM Cell Trace Far Red were used as the control target cells, while T2A2 cells loaded with MUT peptides or the corresponding WT peptides (50 μg/mL) or T2A2 cells only were marked with 1 mM Cell Trace Far Red and were used as test target cells (peptide-specific T cells stimulated from donors B–F’s PBMCs).

[3] = system: peptide-pulsed T2A2 cells; test: IFN-γ intracellular staining of peptide-induced T cells from donor PBMCs; type: cell-based, human; conditions: PBMCs of HLA-A2+ donors B–F, DCs pulsed with 10 μg/mL peptide, three rounds
Description: as §1
When target cells were peptide-pulsed T2A2 cells (MUT peptide or its corresponding WT peptide), peptide-specific T cells (from HLA-A2^+ healthy donors B–F) stimulated by MUT peptides were co-cultured with these cells in the presence of BFA for 5 h. Then T cells were marked by anti-human CD3 and anti-human CD8α monoclonal antibody. Thirty minutes later, cells were fixed by fixation buffer (Thermo Scientific, Waltham, MA, USA) for thirty minutes and washed by permeabilization buffer (Thermo Scientific, USA). Permeabilized T cells were marked by anti-human IFN-γ monoclonal antibody.

Sequence	FI (fluorescence index) (HLA-A*0201 molecule)	DC50 (dissociation complex 50) [1] [h]	lysis cytotoxicity of MUT peptide-induced T cells on T2A2 cells [2]	IFN-γ release of MUT peptide-induced T cells, MUT versus WT peptide-loaded T2A2 cells [3]
ALDMCVKFL [LRP1B-P3707L]	0.37	–	–	–
SIPSFPLPV [MUC16-S5361F]	2.25	<2	–	–
QLQAQLQGV [KMT2D-R4198Q]	1.12	<2	–	–
GLFQCGTGL [LRP1B-R3362L]	0.09	–	–	–
ILGEEAPRL [KMT2D-F4722L]	0.29	–	–	–
GLPNDDLYI [DNAH5-S3587Y]	0.68	–	–	–
FMNELMDII [DNAH5-D4110N]	0.38	–	–	–
LLGRNSFEL [TP53-V272L]	0.53	–	–	–
KLLSLLEVL [SYNE1-A65S]	0.08	–	–	–
RMQRVLSHV [DNAH5-L4406H]	0.30	–	–	–
SMGDALDSI [MUC16-A4579D]	1.35	<2	–	–
LMSRIPHDV [MUC16-Q5024H]	0.14	–	–	–
GMLSPVDFL [NOTCH1-S2202F]	0.13	–	–	–
TMSERSTLL [MUC17-T3809M]	0.12	–	–	–
TILEELNVV [SYNE1-N4342I]	1.81	<4	–	–
TMPVVSSEV [MUC17-A2414V]	1.54	<4	–	–
ILWRQDTDL [NFE2L2-I28T]	0.79	–	–	–

Sequence	FI (fluorescence index) (HLA-A*0201 molecule)	DC50 (dissociation complex 50) [1] [h]	lysis cytotoxicity of MUT peptide-induced T cells on T2A2 cells [2]	IFN-γ release of MUT peptide-induced T cells, MUT versus WT peptide-loaded T2A2 cells [3]
YLPDHHEEL [SYNE1-S7628Y]	1.67	<2	–	–
YLLTPNGRV [LRP1B-C2479Y]	0.39	–	–	–
NLHSINDFL [ABCA13-D1303H]	0.24	–	–	–
FLIQTEQKL [SYNE1-V7402I]	1.27	>6	strong cytotoxicity activity	cannot effectively distinguish T2A2 cells loaded with WT or MUT peptides
FLTATRQEI [DNAH5-M4495T]	0.21	–	–	–
YMCNSSCMV [TP53-G244V]	0.49	–	–	–
LLARNSFEV [TP53-G266A]	0.16	–	–	–
RMHDVTTPL [NOTCH1-G1995V]	0.42	–	–	–
ALNKMFFQL [TP53-C135F]	0.12	–	–	–
ALPQHLIRV [TP53-P190L]	1.26	>4	strong cytotoxicity activity	cannot effectively distinguish T2A2 cells loaded with WT or MUT peptides
TLTATVNIV [PCDH15-S628L]	0.43	–	–	–
VLDDSETTI [MUC16-A9832D]	3.56	>6	strong cytotoxicity activity	cannot effectively distinguish T2A2 cells loaded with WT or MUT peptides
CLRDYQPFL [LRP2-D1744Y]	0.20	–	–	–
VISDYKYKV [NEB-D3282V]	0.09	–	–	–
ILQDGFLYV [ABCA13-E1359Q]	1.56	>6	strong cytotoxicity activity	cannot effectively distinguish T2A2 cells loaded with WT or MUT peptides
ILIGETIKI [COX-2 321–329, reference compound]	2.12	>6	–	–
